Experimental data from publication PMC8536644, “Enigmatic mechanism of the N-vinylpyrrolidone hepatocarcinogenicity in the rat” (Archives of Toxicology, 2021).
“And” between values parts separate entries of the source, which are not always exact repeats. Equal values may be shown once.

Legend:
[1] = test system: palmitoyl CoA oxidase/acyl CoA oxidase; test: Cyanide-insensitive palmitoyl-CoA oxidase assay, liver cytosol (PPARα marker); format: in vivo, rat; details: male rats
Protocol: Cyanide-insensitive palmitoyl-CoA oxidase was determined essentially according to the method by Lazarow ([1981]), specifically as follows:
Five µL of the liver cytosol (prepared as described in the preceding chapter “Aryl hydrocarbon receptor”) derived from the NVP-treated (and untreated control) male rats were mixed in a centrifugal analyzer Cobas Fara II (Hoffmann La Roche) with 250 µL reaction mixture consisting of 28.2 mL 50 mM Tris buffer pH 8.01, 150 µL 2% Triton-X-100, 300 µL 1 mM FAD, 300 µL 10 mM CoA, 150 µL 1.5% BSA, 90 µL 0.33 mM dithiothreitol, 300 µL 20 mM NAD and after homogenization 300 µL 100 mM KCN. The reaction was started by adding 5 µL of 5.03 µM palmitoyl-CoA aqueous solution. The increase of the absorption at ʎ = 334 nm due to NADH formation was determined and translated to palmitoyl-CoA oxidase U/L by the Cobas Fara II software.

CYP 2B/3A = test: BROD inhibition control in Aroclor 1254-induced rat liver microsomes; format: biochemical; details: for BROD enzyme activity: 0 µM control 445.1 ± 9.1
Protocol: For determination of the enzyme activities in triplicates, 85 µL master mix (100 mM TrisHCl pH 7.5, 2 mM 5’AMP, 5 mM G-6-P, 10 U G-6-P-DH, 10 mM Dicumarol, 10 mM MgCl2, either 2 µM EROD or 10 µM PROD or 5 µM BROD) was added to 10 µL microsomal fraction (1 mg protein/mL). The reaction was started by the addition of 5 µL 2 mM NADPH (dissolved in 100 mM TrisHCl pH 7.5) followed by incubation at 37 °C for 16 min. The activity was determined by measuring the increase of the fluorescence (excitation at 550 nm, emission at 585 nm) due to resorufin formation compared with resorufin standards, which had been prepared by dissolving tenfold concentrated solutions in DMSO, which were then diluted tenfold in 100 mM TrisHCl pH 7.5.
As a method control the described AROD assay was performed with microsomal fractions derived from liver and lung of male Wistar rats which had been treated i.p. for 5 days with aroclor 1254 (500 mg/kg bw). These control assays were performed in presence of 1 μM, 10 μM or 100 μM NVP, respectively, in order to check for potential interactions of NVP with the substrate turnover in the AROD assay.

Drosophila melanogaster = details: ref Knaap et al. [1985]; cited from earlier work
rat hepatocytes = test system: rat hepatocytes; design: method as in MAK [1994]; details: ref MAK [1994]; cited from earlier work
CYP2E1 = test: Lauric acid hydroxylase assay, 11-hydroxylation; format: in vivo, rat
Protocol: ^14C-labelled lauric acid (55 mCi/mmol) dissolved in ethanol (0.1 mCi/mL; total volume 2.5 mL) was purchased from American Radiolabeled Chemicals. 10 µL of this solution were diluted with methanol to 2 mL. The purity was checked by radio-HPLC. For the enzyme activity determinations 1.21 mL of this solution were treated in the thermomixer at 40 °C and 300 rpm until the ethanol was completely evaporated. The residue was taken up in 550 µL DMSO and checked on the incubation days by radio-HPLC and by liquid scintillation counting (LSC). To this end the just-mentioned solution in DMSO (nominally 8.14 MBq/mL) was 100-fold diluted with methanol, 50 µL of the resultant solution used for the HPLC analysis, 100 µL for the LSC analysis (488,400 dpm/100 µL).
For the determination of the lauric acid hydroxylase activity the liver microsomal fractions (prepared as described in the preceding chapter “Aryl hydrocarbon receptor”) derived from the NVP-treated (and untreated control) male rats were adjusted with TrisHCl pH 7.5–20 mg protein/mL. Obtained samples were measured in duplicates. Controls were heat-denatured samples (15 min at 99 °C in the thermomixer at 450 rpm), zero-time samples (reaction stopped immediately after adding substrate) and buffer controls (TrisHCl pH 7.5, no microsomal protein). 155 µL master mix (100 mM TrisHCl pH 7.5, 10 mM MgCl2, 2 mM 5’AMP-Na2, 5 mM G-6-P, 10 U G-6-P-DH) and 30 µL sample were preincubated for 3 min at 37 °C. Subsequently 10 µL of a 2-mM NADPH solution and 5 µL ^14C-lauric acid (8.14 MBq/mL) were added (lauric acid final concentration in the incubation 100 µM). The reaction was run for 20 min at 37 °C in the thermomixer (450 rpm) and stopped by the addition of 200 µL ice-cold acetone. Proteins were sedimented by centrifugation (6000 g, 10 min, 4 °C) and the supernatant used for the analysis by HPLC (system: Agilent 1260 infinity, column: EC250/4 Nucleosil, 120–5 C18, radio detector: Berthold FlowStar LB 513) under the following conditions: Injection volume 50 µL; eluent A: Methanol/acetic acid/water (600/5/400 mL), eluent B: Methanol; gradient: 0–10 min 100% eluent A, 10–20 min 0–100% eluent B, 20–30 min 100% eluent B, 30–40 min 100% eluent A; flow rate: 0.8 mL/min. In order to ascertain the assignment of the peaks to 11-hydroxylauric acid versus 12-hydroxylauric acid the retention times and mass spectra (HPLC-QTOF/MS) of a 12-hydroxylauric acid standard were compared with the lauric acid incubates (parameters of the HPLC-QTOF/MS system: (U)HPLC: Agilent 1200 und 1290; MS instrument: MS324/Agilent/S/N US10318001; radio detector: Raytest/Mirastar Masshunter Data Acquisition B.06.01; ionisation mode: ESI, negative mode).

[2] = test system: p53 transcription factor activity; design: method as in ToxCast (comptox.epa.gov dashboard); details: ref ToxCast (comptox.epa.gov dashboard); read-out: AC50 of the p53 transcription factor activity modulation; cited from earlier work
[3] = test system: polychromatic erythrocytes of rat bone marrow; details: in vivo; cited from earlier work
[4] = lauric acid 11-hydroxylation, liver microsomes, 20 ppm NVP, individual animals 19-24

| Compound | Cyanide-insensitive palmitoyl CoA oxidase activity in liver cytosol ([1]; 5 ppm) [nmol/min/mg protein] | Cyanide-insensitive palmitoyl CoA oxidase activity in liver cytosol ([1]; 10 ppm) [nmol/min/mg protein] | Cyanide-insensitive palmitoyl CoA oxidase activity in liver cytosol ([1]; 20 ppm, statistically significantly reduced) [nmol/min/mg protein] | BROD enzyme activity (CYP 2B/3A; 1 µM NVP) [pmol/min/mg protein] | BROD enzyme activity (CYP 2B/3A; 10 µM NVP) [pmol/min/mg protein] | BROD enzyme activity (CYP 2B/3A; 100 µM NVP) [pmol/min/mg protein] | Inhibition of BROD activity (CYP 2B/3A; 1, 10 or 100 µM NVP) | Sex-linked recessive lethal test result (Drosophila melanogaster) | Unscheduled DNA Synthesis (UDS) test result (rat hepatocytes) | Lauric acid 11-hydroxylation activity (CYP2E1; 20 ppm, male rat liver microsomes) [peak area/min/mg protein] | Increase of lauric acid 11-hydroxylation vs vehicle control (CYP2E1; 20 ppm, statistically not significant) [fold] | ω-1-hydroxylase (CYP2E1-activity), enzyme activity individual (CYP2E1; [4]) | ω-1-hydroxylase (CYP2E1-activity), peak surface (CYP2E1; [4]) | ω-1-hydroxylase (CYP2E1-activity), enzyme activity group (mean ± SD) (CYP2E1; lauric acid 11-hydroxylation, liver microsomes, 20 ppm NVP, vehicle 4512 ± 1050) | AC50 [2] [nM] | Micronuclei in PCE, historical positive controls [3] |
| --- | --- | --- | --- | --- | --- | --- | --- | --- | --- | --- | --- | --- | --- | --- | --- | --- |
| C=CN1CCCC1=O [NVP, N-vinylpyrrolidone] | 5.43 ± 0.71 | 5.47 ± 0.71 | 4.68 ± 0.71 | 470.1 ± 29.7 | 445.1 ± 20.9 | 456.5 ± 30.9 | does not lead to inhibition | negative | negative | 5149 ± 2010 | 1.1 | 7458 peak surface/min/mg protein and 7295 peak surface/min/mg protein and 3522 peak surface/min/mg protein and 5008 peak surface/min/mg protein and 5216 peak surface/min/mg protein and 2393 peak surface/min/mg protein | 9940 and 10,040 and 5283 and 7513 and 7824 and 3996 | 5149 ± 2010 peak surface/min/mg protein | 40 | – |
| CCOS(C)(=O)=O [EMS, ethyl methanesulfonate, reference compound] | – | – | – | – | – | – | – | – | – | – | – | – | – | – | – | 6.1–21.9 ‰ |
